Laboratory results published in patent US20190350939A1, “CANCER TREATMENT METHOD USING Ni-SOD MIMIC COMPOUND” (NATIONAL CHIAO TUNG UNIVERSITY, priority 2018, published 2019).

test system: MiaPaCa-2 cells; test: In vivo study, MiaPaCa-2 subcutaneous tumor in nude mice; conditions: 0.27 mg/kg tail vein injection, 18th day; start 125 mm^3; PBS group 600 mm^3
Method: In an embodiment, mice (BALB/cAnN.Cg-Foxn1nu/CrlNarl mice) are reared until 6 weeks of age, and 1×10^6 of MiaPaCa-2 cells are subcutaneously injected into the right rear leg of the mice. […] The experiment is performed until the 18th day, and the tumor size is measured every 2 days. The measurement formula of the tumor size is as follows: ½ (L×W^2), wherein L represents the longest diameter of the tumor; W represents the shortest diameter of the tumor.

In order of rising tumor size:
1. Nc1ccn([C@@H]2O[C@H](CO)[C@@H](O)C2(F)F)c(=O)n1 [Gemzar]  30 mm^3
2. CC[C@@]1(O)C(=O)OCc2c1cc1n(c2=O)Cc2cc3ccccc3nc2-1 [CPT]  52 mm^3
3. COc1cccc2c1C(=O)c1c(O)c3c(c(O)c1C2=O)C[C@@](O)(C(=O)CO)C[C@@H]3O[C@H]1C[C@H](N)[C@H](O)[C@H](C)O1 [Doxorubicin]  64 mm^3
4. CC(=O)O[C@@]12CO[C@@H]1C[C@H](O)[C@@]1(C)C(=O)[C@H](O)C3=C(C)[C@@H](OC(=O)[C@H](O)[C@@H](NC(=O)OC(C)(C)C)c4ccccc4)C[C@@](O)([C@@H](OC(=O)c4ccccc4)[C@H]21)C3(C)C [Taxatere]  68 mm^3
